Measured values as given in ChEMBL document CHEMBL3886459, “Benzylamine derivatives as inhibitors of plasma kallikrein” (2016).
pIC50: −log10 of the molar value.

What was measured:
Plasma kallikrein = Plasma kallikrein (Homo sapiens, UniProt P03952); assay: (§1) In Vitro Inhibition Assay: Plasma kallikrein inhibitory activity in vitro was determined using standard published methods (see e.g. Johansen et al., Int. J. Tiss. Reac. 1986, 8, 185; Shori et al., Biochem. Pharmacol., 1992, 43, 1209; Stiirzebecher et al., Biol. Chem. Hoppe-Seyler, 1992, 373, 1025). Human plasma kallikrein (Protogen) was incubated at 37° C. with the fluorogenic substrate H-DPro-Phe-Arg-AFC and various concentrations of the test compound. Residual enzyme activity (initial rate of reaction) was determined by measuring the change in […] at 410 nm and the IC50 value for the test compound was determined.; assay type: cell-free
Sequence of Plasma kallikrein (P03952 20-390 limits assumed): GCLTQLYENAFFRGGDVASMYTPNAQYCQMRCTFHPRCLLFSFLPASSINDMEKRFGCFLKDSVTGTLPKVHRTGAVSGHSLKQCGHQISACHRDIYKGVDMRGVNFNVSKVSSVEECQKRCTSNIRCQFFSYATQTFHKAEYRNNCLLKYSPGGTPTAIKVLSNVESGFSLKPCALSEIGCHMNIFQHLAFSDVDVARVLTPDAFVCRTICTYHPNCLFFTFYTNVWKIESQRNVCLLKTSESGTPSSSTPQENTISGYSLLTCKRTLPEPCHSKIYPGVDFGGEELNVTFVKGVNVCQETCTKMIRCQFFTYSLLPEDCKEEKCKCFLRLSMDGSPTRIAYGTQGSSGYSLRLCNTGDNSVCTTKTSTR
Sequence of Plasma kallikrein (P03952 391-638 limits assumed): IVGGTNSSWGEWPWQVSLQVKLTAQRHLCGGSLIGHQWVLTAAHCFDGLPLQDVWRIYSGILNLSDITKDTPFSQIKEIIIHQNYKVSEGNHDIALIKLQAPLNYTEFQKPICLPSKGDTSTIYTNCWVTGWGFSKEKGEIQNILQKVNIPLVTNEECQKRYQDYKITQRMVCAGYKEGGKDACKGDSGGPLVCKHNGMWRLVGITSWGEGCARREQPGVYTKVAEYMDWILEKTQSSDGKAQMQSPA

Kallikrein-1 = Kallikrein-1 (Homo sapiens, UniProt P06870); assay: as §1, with “KLK1” for “Plasma kallikrein”, “Stürzebecher” for “Stiirzebecher”, “KLK1 (Callbiochem)” for “plasma kallikrein (Protogen)”, “H-DVal-Leu-Arg-AFC” for “H-DPro-Phe-Arg-AFC”
Sequence of Kallikrein-1 (P06870 whole entry): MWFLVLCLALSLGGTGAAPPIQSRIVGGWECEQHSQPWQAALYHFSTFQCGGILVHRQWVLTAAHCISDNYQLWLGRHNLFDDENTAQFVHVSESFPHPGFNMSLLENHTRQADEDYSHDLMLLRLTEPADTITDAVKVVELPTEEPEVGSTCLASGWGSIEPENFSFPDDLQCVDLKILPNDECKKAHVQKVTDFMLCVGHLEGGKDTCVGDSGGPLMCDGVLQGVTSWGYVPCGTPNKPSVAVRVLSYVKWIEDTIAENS

Coagulation factor XII = biological target: T1, Coagulation factor XII (Homo sapiens, UniProt P00748); assay: Enzyme Assay: Human serine protease enzymes plasmin, thrombin, trypsin, Factor Xa and Factor XIIa were assayed for enzymatic activity using an appropriate fluorogenic substrate. Protease activity was measured by monitoring the accumulation of liberated fluorescence from the substrate over 5 minutes. The linear rate of fluorescence increase per minute was expressed as percentage (%) activity. The …
T1 sequence (P00748 whole entry): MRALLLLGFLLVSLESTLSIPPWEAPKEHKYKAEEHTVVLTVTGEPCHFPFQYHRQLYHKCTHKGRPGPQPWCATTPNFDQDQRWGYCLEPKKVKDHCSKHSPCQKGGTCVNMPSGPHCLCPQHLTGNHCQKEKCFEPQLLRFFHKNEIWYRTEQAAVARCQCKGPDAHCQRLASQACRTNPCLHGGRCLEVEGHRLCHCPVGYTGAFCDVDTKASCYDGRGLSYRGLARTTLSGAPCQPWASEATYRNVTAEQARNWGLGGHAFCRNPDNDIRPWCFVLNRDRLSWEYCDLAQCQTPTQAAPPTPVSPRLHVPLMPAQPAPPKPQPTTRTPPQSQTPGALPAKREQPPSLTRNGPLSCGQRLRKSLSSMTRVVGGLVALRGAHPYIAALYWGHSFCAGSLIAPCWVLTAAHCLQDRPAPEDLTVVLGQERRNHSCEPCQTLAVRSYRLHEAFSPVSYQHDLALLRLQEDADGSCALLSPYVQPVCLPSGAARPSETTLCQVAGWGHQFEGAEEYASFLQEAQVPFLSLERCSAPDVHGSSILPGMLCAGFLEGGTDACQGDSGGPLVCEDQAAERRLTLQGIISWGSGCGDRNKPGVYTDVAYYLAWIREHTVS
Description: Enzyme Assay: Human serine protease enzymes plasmin, thrombin, trypsin, Factor Xa and Factor XIIa were assayed for enzymatic activity using an appropriate fluorogenic substrate. Protease activity was measured by monitoring the accumulation of liberated fluorescence from the substrate over 5 minutes. The linear rate of fluorescence increase per minute was expressed as percentage (%) activity. The Km for the cleavage of each substrate was determined by standard transformation of the Michaelis-Menten equation.

| Structure (SMILES) | pIC50 (Plasma kallikrein) | pIC50 (Kallikrein-1) | pIC50 (Coagulation factor XII) |
| --- | --- | --- | --- |
| CCOc1ccc(C[C@@H](NC(=O)c2ccccc2)C(=O)N[C@@H](Cc2c[nH]c3ccccc23)C(=O)NCc2ccc(CN)cc2)cc1 | 7.55 | < 5.00 | – |
| NCc1ccc(CNC(=O)[C@H](Cc2ccccc2)NC(=O)[C@@H](Cc2ccc(OCc3ccccc3)cc2)NC(=O)c2ccccc2)cc1 | 5.92 | < 5.00 | – |
| CCOc1ccc(C[C@@H](NC(=O)c2ccc(OC)cc2)C(=O)N[C@@H](Cc2ccccc2)C(=O)NCc2ccc(CN)cc2)cc1 | 7.34 | < 5.00 | < 5.00 |
| CCOc1ccc(C[C@@H](NC(=O)c2ccc(C)cc2)C(=O)N[C@@H](Cc2ccccc2)C(=O)NCc2ccc(CN)cc2)cc1 | 7.49 | < 5.00 | < 5.00 |
| CCCOc1ccc(C[C@@H](NC(=O)c2ccccc2)C(=O)N[C@@H](Cc2ccccc2)C(=O)NCc2ccc(CN)cc2)cc1 | 7.40 | 5.02 | – |
| NCc1ccc(CNC(=O)[C@H](Cc2ccccc2)NC(=O)[C@H](N)CC2CCCCC2)cc1 | 6.13 | < 6.00 | – |
